≈ marks a conversion by molar mass, not a printed value. Like-named read-outs stand apart in the source and are kept apart here. Where a SMILES comes first, the peptide text is derived from it. Bridges are numbered along the chain shown (N, C = ends). Roman numbers before positions name the chains, in order. Side-chain parts run from the residue outwards. The star is where a group is joined. Myristoyl = CCCCCCCCCCCCCC(=O)*; Lauroyl = CCCCCCCCCCCC(=O)*; Decanoyl = CCCCCCCCCC(=O)*; Octanoyl = CCCCCCCC(=O)*
How the values were obtained:
[1] = tested on: Enterococcus faecium ATCC 700221; format: cell-based
Protocol: (§1) Biofilm is associated with life-threating infections due to its outstanding resistance to antibiotics. In this study, the antibiofilm characteristics of USCLs and gemini surfactants were evaluated.
(§2) The MBECs were determined as described previously using 96-well polystyrene flat-bottom plates. For this purpose, 24 h cultures of microorganisms were diluted to obtain a final density of 5.0 × 10^5 CFU/mL and 2.0 × 10^5 CFU/mL of bacteria and fungi, respectively. Microorganisms were diluted in MHB or RPMI-1640 with 2% D-glucose (bacteria and fungi, respectively). Briefly, 100 µL of cell suspension was added into the test plates. After 24 h of incubation at 37 °C, the wells were rinsed three times with a PBS (pH 7.4) to remove non-adherent cells. Subsequently, 100 μL of the test compounds in a concentration range (1–512 μg/mL) were added to each well. After 24 h of incubation at 37 °C, 20 μL of a cell viability reagent was added (resazurin, 4 g/L; Sigma Aldrich, St. Louis, MO, USA). The MBEC was read after 1 h. The determined values were recorded as the lowest concentration at which the reduction of resazurin (from blue to pink) was lower or equal to 10 ± 0.5% as compared to the positive (100%) and negative (0%) controls. The reduction was monitored by measuring absorbance at 570 nm (reduced) and 600 nm (oxidized) using a microplate spectrophotometer (Multiskan GO Microplate Spectrophotometer, Thermo Fisher Scientific, Vantaa, Finland). All experiments were conducted in triplicate.

[2] = tested on: Acinetobacter baumannii ATCC BAA 1605; format: cell-based
Protocol: as §1, §2

[3] = tested on: Candida albicans ATCC 10231; format: cell-based
Protocol: as §1, §2

[4] = tested on: Klebsiella aerogenes ATCC 13048; format: cell-based
Protocol: as §1, §2

[5] = tested on: Staphylococcus aureus ATCC 25923; format: cell-based
Protocol: as §1, §2

[6] = tested on: Klebsiella pneumoniae ATCC 700603; format: cell-based
Protocol: as §1, §2

[7] = tested on: Candida glabrata ATCC 15126; format: cell-based
Protocol: as §1, §2

[8] = tested on: Staphylococcus aureus ATCC 33591; format: cell-based
Protocol: as §1, §2

[9] = tested on: Pseudomonas aeruginosa ATCC 9027; format: cell-based
Protocol: as §1, §2

[10] = tested on: Enterococcus faecium ATCC 700221
Protocol: (§3) The Acinetobacter baumannii ATCC BAA-1605, Enterococcus faecium ATCC 700221, Escherichia coli ML-35 ATCC 43827, Klebsiella aerogenes ATCC 13048, Klebsiella pneumoniae ATCC 700603, Pseudomonas aeruginosa ATCC 9027, Staphylococcus aureus ATCC 25923, Staphylococcus aureus ATCC 33591, Candida albicans ATCC 10231, Candida glabrata ATCC 15126, strains were acquired from the American Type Culture Collection (ATCC). All the strains were stored at −80 °C in Roti-Store cryo vials and before the tests were transferred into fresh Mueller–Hinton broth (MHB, Biocorp, Warsaw, Poland) for bacteria or RPMI-1640 (Sigma-Aldrich, Steinheim, Germany) for fungi and incubated for 24 h at 37 °C. Then, the cultures were seeded on the Mueller–Hinton agar (BioMaxima, Lublin, Poland) or Sabouraud dextrose agar (SDA, BioMaxima, Lublin, Poland) plates, respectively, and incubated as just mentioned. These agar cultures were used for further microbiological assays. Cell densities for all assays were adjusted spectrophotometrically (Multiskan GO Microplate Spectrophotometer, Thermo Fisher Scientific, Vantaa, Finland) at 600 and 530 nm for bacteria and fungi, respectively.
(§4) The MICs were determined by the broth microdilution method according to the Clinical and Laboratory Standard Institute guidelines. […] The experiments were conducted on 96-well microtiter polystyrene plates (Kartell, Noviglio, Italy). The growth was assessed visually after incubation, and the MIC was assumed as the lowest peptide concentration at which a noticeable growth of microorganisms was inhibited. All experiments were conducted in triplicate.

[11] = tested on: Acinetobacter baumannii ATCC BAA 1605
Protocol: as §3, §4

[12] = tested on: Klebsiella aerogenes ATCC 13048
Protocol: as §3, §4

[13] = tested on: Staphylococcus aureus ATCC 25923
Protocol: as §3, §4

[14] = tested on: Klebsiella pneumoniae ATCC 700603
Protocol: as §3, §4

[15] = tested on: Pseudomonas aeruginosa ATCC 9027
Protocol: as §3, §4

[16] = Lipopeptide hydrophobicity by RP-HPLC (adjusted retention time); format: physicochemical; conditions: for Adjusted Retention Time: RP-HPLC, 20–65% acetonitrile over 30 min, indicator of hydrophobicity; for Difference in retention time calculated as tR’C—tR’B: between corresponding surfactants of series C and B
Protocol: The identity of the purified peptides was confirmed with electrospray ionization mass spectrometry (ESI-MS) in positive ion mode. Results of MS analyses and net charge are attached in Supplementary Materials (Table S1). Peptides’ hydrophobicity was evaluated by analytical reversed-phase high-performance liquid chromatography (RP-HPLC). The critical aggregation concentrations (CACs) of the lipopeptides were determined in unbuffered aqueous solution at 298 K by measuring the surface tension as a function of lipopeptide concentration. The measurements were carried out by the Du Noüy ring method on a K100 tensiometer. The surface tension data were plotted against the logarithm of lipopeptide concentration. CAC was found as the intersection of two lines being linear regression of data below and above CAC.
Lipopeptide hydrophobicity was determined as described previously. To do this, a Waters Alliance e2695 system with a Waters 2998 PDA Detector (software-Empower 3, Waters, Milford, MA, USA) was used. All analyses were carried out on a Waters X-Bridge Shield RP-18 column (3.0 × 100 mm, 3.5 μm particle size, 130 Å pore size). The Shield Technology column with embedded polar groups was used to minimize interactions of unreacted silanol groups with basic lipopeptides. The peptides were dissolved in water (0.1% TFA, v/v) up to a concentration of 1 mg/mL. UV detection at 214 nm was used, and samples (10 μL) were eluted with a linear 20–65% acetonitrile gradient in deionized water over 30 min at 25.0 ± 0.1 °C. The mobile phase flow rate was 0.5 mL/min. Both eluents contained 0.1% (v/v) of TFA. Each peptide sample was analyzed in triplicate. The maximum standard deviation and coefficient of variation were 0.044 and 0.85%, respectively.

Row | Compound | MIC Enterococcus faecium ATCC 700221 ([10]; planktonic culture) | MIC Staphylococcus aureus ATCC 25923 ([13]; planktonic culture) | MIC Pseudomonas aeruginosa ATCC 9027 ([15]; planktonic culture) | Adjusted Retention Time [16] [min] | Difference in retention time calculated as tR’C—tR’B [16] [min] | MBEC Enterococcus faecium ATCC 700221 ([1]; ATCC 700221, 24 h) [µg/mL] | MBEC Acinetobacter baumannii ATCC BAA 1605 ([2]; ATCC BAA 1605, 24 h) [µg/mL] | MBEC Candida albicans ATCC 10231 ([3]; ATCC 10231, 24 h) [µg/mL] | MBEC Klebsiella aerogenes ATCC 13048 ([4]; ATCC 13048, 24 h) [µg/mL] | MBEC Staphylococcus aureus ATCC 25923 ([5]; ATCC 25923, 24 h) [µg/mL] | MBEC Klebsiella pneumoniae ATCC 700603 ([6]; ATCC 700603, 24 h) [µg/mL] | MBEC Candida glabrata ATCC 15126 ([7]; ATCC 15126, 24 h) [µg/mL] | MBEC Staphylococcus aureus ATCC 33591 ([8]; ATCC 33591, 24 h) [µg/mL] | MBEC Pseudomonas aeruginosa ATCC 9027 ([9]; ATCC 9027, 24 h) [µg/mL] | MIC Enterococcus faecium ATCC 700221 ([10]; ATCC 700221, 24 h) [µg/mL] | MIC Acinetobacter baumannii ATCC BAA 1605 ([11]; ATCC BAA 1605, 24 h) | MIC Klebsiella aerogenes ATCC 13048 ([12]; ATCC 13048, 24 h) | MIC Klebsiella pneumoniae ATCC 700603 ([14]; ATCC 700603, 24 h) | MIC Pseudomonas aeruginosa ATCC 9027 ([15]; ATCC 9027, 24 h) [µg/mL] | MIC Staphylococcus aureus ATCC 25923 ([13]; ATCC 25923, 24 h) [µg/mL] | also measured
1 | CCCCCCCC(=O)N[C@@H](Cc1ccccc1)C(=O)N[C@@H](CCCNC(=N)N)C(=O)N[C@@H](CCCNC(=N)N)C(=O)N[C@@H](CSSC[C@H](NC(=O)[C@H](CCCNC(=N)N)NC(=O)[C@H](CCCNC(=N)N)NC(=O)[C@H](Cc1ccccc1)NC(=O)CCCCCCC)C(N)=O)C(N)=O [Compound C5] (I: Octanoyl-FRRC-NH2 / II: Octanoyl-FRRC-NH2; disulfide I:4-II:4) | 2 µg/mL (≈ 1.42 µM) | 2 µg/mL (≈ 1.42 µM) | 8 µg/mL (≈ 5.67 µM) | 15.42 | 0.23 |  |  |  |  |  |  |  |  |  |  |  |  |  |  |  | MBEC Enterococcus faecium ATCC 700221 ([1]; 24 h biofilm on polystyrene): 8 µg/mL; MBEC Acinetobacter baumannii ATCC BAA 1605 ([2]; 24 h biofilm on polystyrene): 512 µg/mL; MBEC Candida albicans ATCC 10231 ([3]; 24 h biofilm on polystyrene): 128 µg/mL; MBEC Klebsiella aerogenes ATCC 13048 ([4]; 24 h biofilm on polystyrene): 256 µg/mL; MBEC Staphylococcus aureus ATCC 25923 ([5]; 24 h biofilm on polystyrene): 64 µg/mL; MBEC Klebsiella pneumoniae ATCC 700603 ([6]; 24 h biofilm on polystyrene): 256 µg/mL; MBEC Candida glabrata ATCC 15126 ([7]; 24 h biofilm on polystyrene): 256 µg/mL; MBEC Staphylococcus aureus ATCC 33591 ([8]; 24 h biofilm on polystyrene): 8 µg/mL; MBEC Pseudomonas aeruginosa ATCC 9027 ([9]; 24 h biofilm on polystyrene): 512 µg/mL; MIC Acinetobacter baumannii ATCC BAA 1605 ([11]; planktonic culture): 32 µg/mL (≈ 22.7 µM); MIC Klebsiella aerogenes ATCC 13048 ([12]; planktonic culture): 128 µg/mL (≈ 90.8 µM); MIC Klebsiella pneumoniae ATCC 700603 ([14]; planktonic culture): 32 µg/mL (≈ 22.7 µM)
2 | CCCCCCCCCCCCCC(=O)N[C@@H](CCCNC(=N)N)C(=O)N[C@@H](CCCNC(=N)N)C(=O)N[C@@H](CSSC[C@H](NC(=O)[C@H](CCCNC(=N)N)NC(=O)[C@H](CCCNC(=N)N)NC(=O)CCCCCCCCCCCCC)C(N)=O)C(N)=O [Compound C4] (I: Myristoyl-Arg-Arg-Cys-NH2 / II: Myristoyl-Arg-Arg-Cys-NH2; disulfide I:3-II:3) |  | 64 µg/mL (≈ 49.9 µM) |  | 25.30 | -0.03 | 64 | 512 | 16 | 512 | 512 | 512 | 64 | 128 | >512 | 8 (≈ 6.23 µM) | 32 µg/mL (≈ 24.9 µM) | 128 µg/mL (≈ 99.7 µM) | >256 (−/−) µg/mL | 64 (≈ 49.9 µM) |  | 
3 | CCCCCCCCCCCC(=O)N[C@@H](CCCNC(=N)N)C(=O)N[C@@H](CCCNC(=N)N)C(=O)N[C@@H](CSSC[C@H](NC(=O)[C@H](CCCNC(=N)N)NC(=O)[C@H](CCCNC(=N)N)NC(=O)CCCCCCCCCCC)C(N)=O)C(N)=O [Compound C3] (I: Lauroyl-Arg-Arg-Cys-NH2 / II: Lauroyl-Arg-Arg-Cys-NH2; disulfide I:3-II:3) |  |  |  | 19.24 | 0.15 | 16 | 512 | 16 | 256 | 128 | 256 | 128 | 32 | 512 | 2 (≈ 1.63 µM) | 64 µg/mL (≈ 52.1 µM) | 32 µg/mL (≈ 26.1 µM) | >256 (−/−) µg/mL | 8 (≈ 6.52 µM) | 4 (≈ 3.26 µM) | 
4 | CCCCCCCC(=O)N[C@@H](CCCNC(=N)N)C(=O)N[C@@H](CCCNC(=N)N)C(N)=O [Compound A1, C8-RR-NH2] (Octanoyl-Arg-Arg-NH2) | >256 (−/−) µg/mL | >256 (−/−) µg/mL | >256 (−/−) µg/mL | 2.93 |  | >512 | >512 | >512 | >512 | >512 | >512 | >512 | >512 | >512 |  | >256 (−/−) µg/mL | >256 (−/−) µg/mL | >256 (−/−) µg/mL |  |  | 
5 | CCCCCCCCCC(=O)N[C@@H](CCCNC(=N)N)C(=O)N[C@@H](CCCNC(=N)N)C(=O)NCCCC[C@H](NC(=O)[C@H](CCCNC(=N)N)NC(=O)[C@H](CCCNC(=N)N)NC(=O)CCCCCCCCC)C(N)=O [Compound B2] (Decanoyl-Arg-Arg-Lys([Arg-Arg-Decanoyl])-NH2) |  |  |  | 13.73 |  | 4 | 128 | 32 | 256 | 8 | 256 | 512 | 4 | 512 | 2 (≈ 1.85 µM) | 8 µg/mL (≈ 7.42 µM) | 128 µg/mL (≈ 119 µM) | 128 µg/mL (≈ 119 µM) | 8 (≈ 7.42 µM) | 1 (≈ 0.927 µM) | 

— article PMC8036666, “Biological and Physico-Chemical Characteristics of Arginine-Rich Peptide Gemini Surfactants with Lysine and Cystine Spacers” (International Journal of Molecular Sciences, 2021)
